Ten compounds from patent publication US20140221374A1, “RAF KINASE INHIBITORS” (Ruga Corporation, priority 2011, published 2014) can be followed below.

One experiment deals with V600E-mutated B-RAF (Homo sapiens, UniProt P15056, V600E). The experiment can be described thus: In vitro assay for inhibition of mutant B-RAF kinase (recombinant V600E-mutated B-RAF, MEK (K97R) substrate). The class given is biochemical. Conditions: 10 nM recombinant V600E-mutated B-RAF. How it is done:
(§1) The ability of compounds described herein to inhibit RAF kinase activity were determined from biochemical kinase inhibition assays using recombinant RAF proteins as known in the art.
Solutions of varying concentrations of test compounds or vehicle were added to 10 nM recombinant V600E-mutated B-RAF proteins incubated in the presence of different concentrations of ATP and […] (K97R) as substrate, as previously described (Wilhelm, S. M., et al., Cancer Res., 64: 7099-7109, 2004; Mason, C. S., et al.; EMBO J. 18: 2137-2.148, 1999; Marais, R., et al., J. Biol. Chem., 272: 4378-4383, 1997). At least triplicate determinations for each individual test compound concentration were made and data plotted as mean±standard deviation relative to the control vehicle.

A further experiment deals with wild-type C-RAF (Homo sapiens, UniProt P04049). Put plainly: In vitro assay for inhibition of RAF kinases (recombinant wild-type C-RAF, MEK (K97R) substrate). The class given is biochemical. Conditions: 10 nM recombinant wild-type C-RAF. How it is done:
as §1
Solutions of varying concentrations of test compounds or vehicle were added to 10 nM recombinant wild-type A-RAF, wild-type B-RAF, or wild-type C-RAF proteins incubated in the presence of different concentrations of ATP and 1 μM MEK (K97R) as substrate, as previously described (Wilhelm, S. M., et al., Cancer Res., 64: 7099-7109, 2004; Mason, C S., et al., EMBO J. 18: 2137-2148, 1999; Marais, R., et al., J. Biol. Chem., 272: 4378-4383, 1997). At least triplicate determinations for each individual test compound concentration were made and data plotted as mean±standard deviation relative to the control vehicle.

For experiment [1], the system named is A375 cells (V600E activated B-RAF). The experiment can be described thus: In vitro tumor cell growth inhibition, MTT, 72 hours. Type of experiment: cell-based. The following applies: Homo sapiens, A-375, 72 hours incubation. The procedure:
Briefly, growth inhibition of cells containing V600E activated B-RAF (A375, Colo205) versus cell lines with wild-type B-RAF (A431) were measured under anchorage-dependent conditions using MTT (3-(4,5-dimethylthiazol-2-yl)-2,5-diphenyltetrazolium bromide), following 72 hours incubation with either compound or vehicle, as previously described (Haass, N. K., et al., Clinical Cancer Res., 14: 230-239, 2008): Cell lines are obtained from the American Type Tissue Culture Collection (Maryland, USA) and cultured in media containing heat-inactivated 10% fetal bovine serum. Cell cultures were also maintained in 10 U/mL, penicillin, 100 μg/mL streptomycin and 2 mM glutamine. At least triplicate determinations for each individual test compound concentration were made and data plotted as mean±standard deviation relative to the control vehicle.

SMILES strings stand for the structures. Bounds are passed on as bounds.

wild-type C-RAF, sequence (P04049 whole entry): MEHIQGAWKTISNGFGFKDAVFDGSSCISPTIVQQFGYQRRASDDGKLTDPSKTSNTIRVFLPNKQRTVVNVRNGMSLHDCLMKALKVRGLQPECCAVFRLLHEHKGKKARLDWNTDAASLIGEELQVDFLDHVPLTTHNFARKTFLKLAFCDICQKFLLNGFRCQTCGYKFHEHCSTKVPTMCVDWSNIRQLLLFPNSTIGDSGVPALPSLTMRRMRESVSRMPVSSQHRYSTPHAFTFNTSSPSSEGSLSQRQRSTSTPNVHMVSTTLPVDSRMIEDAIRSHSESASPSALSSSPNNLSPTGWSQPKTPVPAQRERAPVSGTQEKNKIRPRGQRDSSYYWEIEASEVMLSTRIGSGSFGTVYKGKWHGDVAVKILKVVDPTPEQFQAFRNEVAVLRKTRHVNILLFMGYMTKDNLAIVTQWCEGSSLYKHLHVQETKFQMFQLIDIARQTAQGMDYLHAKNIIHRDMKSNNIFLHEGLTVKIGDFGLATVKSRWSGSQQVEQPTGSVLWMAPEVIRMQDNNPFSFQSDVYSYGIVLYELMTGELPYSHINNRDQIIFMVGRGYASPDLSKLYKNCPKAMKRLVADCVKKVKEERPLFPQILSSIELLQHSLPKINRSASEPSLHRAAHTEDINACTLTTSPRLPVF
V600E-mutated B-RAF, sequence (P15056 whole entry V600E): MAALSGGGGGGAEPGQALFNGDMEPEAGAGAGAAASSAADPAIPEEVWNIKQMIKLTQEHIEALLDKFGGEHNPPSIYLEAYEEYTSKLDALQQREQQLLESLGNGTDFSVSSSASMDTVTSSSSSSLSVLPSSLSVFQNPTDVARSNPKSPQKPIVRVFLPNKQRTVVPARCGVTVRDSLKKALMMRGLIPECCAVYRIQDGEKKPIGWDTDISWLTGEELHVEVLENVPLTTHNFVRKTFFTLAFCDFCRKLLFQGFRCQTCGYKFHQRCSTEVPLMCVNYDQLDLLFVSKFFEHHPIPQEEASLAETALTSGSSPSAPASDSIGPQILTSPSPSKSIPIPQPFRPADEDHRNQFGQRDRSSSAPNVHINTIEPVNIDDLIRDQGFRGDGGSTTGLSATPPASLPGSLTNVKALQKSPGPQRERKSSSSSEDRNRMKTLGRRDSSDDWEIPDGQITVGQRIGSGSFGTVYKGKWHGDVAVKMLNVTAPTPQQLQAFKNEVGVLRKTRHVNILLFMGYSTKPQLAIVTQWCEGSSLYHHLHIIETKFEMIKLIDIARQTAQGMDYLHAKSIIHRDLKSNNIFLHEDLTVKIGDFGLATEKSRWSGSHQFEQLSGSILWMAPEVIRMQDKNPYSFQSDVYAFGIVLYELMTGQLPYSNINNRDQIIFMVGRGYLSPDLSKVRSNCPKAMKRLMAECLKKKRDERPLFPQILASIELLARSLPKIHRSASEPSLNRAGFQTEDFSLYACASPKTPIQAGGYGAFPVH

As for `Cc1ccc(NC(=O)Nc2cccc(-c3sc(C)nc3-c3ccncc3)c2)cc1` [Example 1, 1-[3-(2-Methyl-4-pyridin-4-yl-thiazol-5-yl)-phenyl]-3-p-tolyl-urea], the values for the IC50 (on V600E-mutated B-RAF; at wild-type C-RAF; in experiment [1]) were at most 0.1 µM, 1 to 10 µM and over 10 µM, respectively.

Regarding `Cc1ccc(NC(=O)Nc2cc(-c3sc(C)nc3-c3ccncc3)ccc2F)cc1` [Example 7, 1-(2-fluoro-5-(2-methyl-4-(pyridin-4-yl)thiazol-5-yl)phenyl)-3-p-tolylurea], the IC50 (commonly the concentration needed to halve the response being measured) is at most 0.1 µM at V600E-mutated B-RAF, 0.1 to 1 µM at wild-type C-RAF and 1 to 10 µM in experiment [1].

With `CCn1cc(-c2cccc(NC(=O)Nc3ccc(C(F)(F)F)cc3)c2F)c(-c2ccncc2)n1` [Example 50, 1-(3-(1-ethyl-3-(pyridin-4-yl)-1H-pyrazol-4-yl)-2-fluorophenyl)-3-(4-(trifluoromethyl)phenyl)urea], the IC50 on V600E-mutated B-RAF was at most 0.1 µM; on wild-type C-RAF it was 1 to 10 µM; in experiment [1] it was 0.1 to 1 µM.

For the compound `CCn1cc(-c2cccc(NC(=O)Nc3ccc(C(F)(F)F)cc3)c2)c(-c2ccncc2)n1` [Example 52, 1-(3-(1-ethyl-3-(pyridin-4-yl)-1H-pyrazol-4-yl)phenyl)-3-(4-(trifluoromethyl)phenyl)urea], the values for the concentration for half-maximal inhibition (IC50) (at V600E-mutated B-RAF; on wild-type C-RAF; in experiment [1]) were at most 0.1 µM, 0.1 to 1 µM and at most 0.1 µM, respectively.

Turning to `CCn1cc(-c2cccc(NC(=O)Nc3ccc(S(=O)(=O)CC)cc3)c2)c(-c2ccncc2)n1` [Example 54, 1-(3-(1-ethyl-3-(pyridin-4-yl)-1H-pyrazol-4-yl)phenyl)-3-(4-(ethylsulfonyl)phenyl)urea], the 50% inhibitory concentration (IC50) at V600E-mutated B-RAF is at most 0.1 µM; in experiment [1], 1 to 10 µM.

`CCn1cc(-c2cccc(NC(=O)Nc3cccc(S(C)(=O)=O)c3)c2)c(-c2ccncc2)n1` [Example 55, 1-(3-(1-ethyl-3-(pyridin-4-yl)-1H-pyrazol-4-yl)phenyl)-3-(3-(methylsulfonyl)phenyl)urea]: the figures for the IC50 (on V600E-mutated B-RAF; in experiment [1]) were at most 0.1 µM and over 10 µM, respectively.

Take `CCn1cc(-c2cccc(NC(=O)Nc3ccc(S(=O)(=O)NC)cc3)c2)c(-c2ccncc2)n1` [Example 56, 4-(3-(3-(1-ethyl-3-(pyridin-4-yl)-1H-pyrazol-4-yl)phenyl)ureido)-N-methylbenzenesulfonamide]: the IC50 at V600E-mutated B-RAF is at most 0.1 µM; in experiment [1] it was over 10 µM.

Turning to `CCn1cc(-c2cccc(NC(=O)Nc3ccc(OC)cc3)c2)c(-c2ccncc2)n1` [Example 57, 1-(3-(1-ethyl-3-(pyridin-4-yl)-1H-pyrazol-4-yl)phenyl)-3-(4-methoxyphenyl)urea], the IC50 (at V600E-mutated B-RAF; in experiment [1]) was at most 0.1 µM each time.

On to `CCn1cc(-c2cccc(NC(=O)Nc3ccc(S(=O)(=O)N4CCOCC4)cc3)c2)c(-c2ccncc2)n1` [Example 59, 1-(3-(1-ethyl-3-(pyridin-4-yl)-1H-pyrazol-4-yl)phenyl)-3-(4-(morpholinosulfonyl)phenyl)urea], for which the figures for the concentration for half-maximal inhibition (IC50) (on V600E-mutated B-RAF; in experiment [1]) were at most 0.1 µM and over 10 µM, respectively.

`CCn1cc(-c2cccc(N(O)C(=O)Nc3ccc(C(F)(F)F)cc3)c2)c(-c2ccncc2)n1` [Example 63, 1-(3-(1-ethyl-3-(pyridin-4-yl)-1H-pyrazol-4-yl)phenyl)-1-hydroxy-3-(4-(trifluoromethyl)phenyl)urea]: the values for the IC50 (on V600E-mutated B-RAF; in experiment [1]) were at most 0.1 µM and 1 to 10 µM, respectively.
